In PubChem BioAssay AID328 (DTP/NCI, 2004) one finds T/C data, which are given here for 16 compounds.

Structures are written as SMILES. “And” between values parts separate entries of the source, which are not always exact repeats. Identical values can stand only once. Toxic doses and inconclusive results are not listed.

This test concerns BDF1 mice, P388 leukemia ip, median survival T/C. Kind of test: NCI In Vivo Anticancer Drug Screen. Data for tumor model P388 Leukemia (intraperitoneal) in B6D2F1 (BDF1) mice. The note with it: endpoint: median survival time, higher = longer survival. Put shortly: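 Transplantable tumour in mice; compound vs vehicle dosing; survival scored; ratio of treated to control reported.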

Setting [1] is: dose: 100.0 mg/kg/injection, schedule: Q01DX009 (ip), vehicle: saline with Tween-80.
Where [2] appears, read: dose: 200.0 mg/kg/injection, schedule: Q01DX009 (ip), vehicle: saline with Tween-80.
Where [3] appears, read: dose: 100.0 mg/kg/injection, schedule: Q01DX009 (ip), vehicle: Klucel (hydroxypropylcellulose) (HPC).
Where [4] appears, read: dose: 200.0 mg/kg/injection, schedule: Q01DX009 (ip), vehicle: Klucel (hydroxypropylcellulose) (HPC).
Where [5] appears, read: dose: 400.0 mg/kg/injection, schedule: Q01DX009 (ip), vehicle: Klucel (hydroxypropylcellulose) (HPC).
[6] abbreviates: dose: 50.0 mg/kg/injection, schedule: Q01DX009 (ip), vehicle: saline with Tween-80.

For the compound `CCOC(=O)/C=C(/CC(=O)OCC)OCC`, the T/C is 106 % of control (dose: 25.0 mg/kg/injection, schedule: Q04DX003 (ip), vehicle: saline); 100 % of control (dose: 50.0 mg/kg/injection, schedule: Q04DX003 (ip), vehicle: saline); 115 % of control (dose: 100.0 mg/kg/injection, schedule: Q04DX003 (ip), vehicle: saline); 106 % of control (dose: 200.0 mg/kg/injection, schedule: Q04DX003 (ip), vehicle: saline); 112 % of control (dose: 400.0 mg/kg/injection, schedule: Q04DX003 (ip), vehicle: saline).

`COc1ccccc1NC(=O)Nc1cccc(Cl)c1`: the T/C was 95 % of control (dose: 100.0 mg/kg/injection, schedule: Q04DX003 (ip), vehicle: saline with Tween-80); 104 % of control (dose: 200.0 mg/kg/injection, schedule: Q04DX003 (ip), vehicle: saline with Tween-80); 95 % of control (dose: 400.0 mg/kg/injection, schedule: Q04DX003 (ip), vehicle: saline with Tween-80).

Regarding `COc1ccc(/C=C/C(=O)c2ccccc2)cc1Br`, the T/C under setting [1] is 109 % of control; the T/C under setting [2] was 109 % of control; the T/C (dose: 400.0 mg/kg/injection, schedule: Q01DX009 (ip), vehicle: saline with Tween-80) was 113 % of control.

As to `COc1cc([C@@H]2c3cc4c(cc3C(Br)[C@H]3COC(=O)[C@H]23)OCO4)cc(OC)c1OC` (stereo not given in full), the T/C (dose: 1.0 mg/kg/injection, schedule: Q01DX010 (ip), vehicle: carboxymethylcellulose (CMC)) is 104 % of control; the T/C (dose: 2.1 mg/kg/injection, schedule: Q01DX010 (ip), vehicle: carboxymethylcellulose (CMC)) is 104 % of control; the T/C (dose: 4.2 mg/kg/injection, schedule: Q01DX010 (ip), vehicle: carboxymethylcellulose (CMC)) was 104 % of control; the T/C (dose: 7.5 mg/kg/injection, schedule: Q01DX009 (ip), vehicle: Klucel (hydroxypropylcellulose) (HPC)) is 161 % of control; the T/C (dose: 15.0 mg/kg/injection, schedule: Q01DX009 (ip), vehicle: Klucel (hydroxypropylcellulose) (HPC)) is 190 % of control; the T/C (dose: 30.0 mg/kg/injection, schedule: Q01DX009 (ip), vehicle: Klucel (hydroxypropylcellulose) (HPC)) was 95 % of control.

For the compound `CCOC(=O)c1c[nH]c2cc(Cl)ccc2c1=O`, under “dose: 75.0 mg/kg/injection, schedule: Q04DX003 (ip), vehicle: Klucel (hydroxypropylcellulose) (HPC)”, the T/C is 96 % of control.

With `COC(=O)C1C(O)C(C)C(OC(C)=O)C(C)/C=C\C=C(C)C(=O)Nc2c(C)c(OC(C)=O)c3c(c2O)C(=O)C(C)=C2OCOC(=C23)C(C)=CC(C)(O)C(O)C(C)C1O` (stereo not given), the T/C is, setting by setting: under setting [3], 101 % of control; under setting [4], 106 % of control; under setting [5], 110 % of control.

Turning to `CC(NSc1ccccc1[N+](=O)[O-])C(=O)O` (stereo not given), the T/C is 98 % of control under setting [6] and 113 % of control under setting [1].

In the case of `c1ccc2cc(Nc3ccc(Nc4ccc5ccccc5c4)cc3)ccc2c1`, the T/C (dose: 100.0 mg/kg/injection, schedule: Q01DX001 (ip), vehicle: Klucel (hydroxypropylcellulose) (HPC)) was 100 % of control; the T/C (dose: 200.0 mg/kg/injection, schedule: Q01DX001 (ip), vehicle: Klucel (hydroxypropylcellulose) (HPC)) is 91 % of control; the T/C (dose: 400.0 mg/kg/injection, schedule: Q01DX001 (ip), vehicle: Klucel (hydroxypropylcellulose) (HPC)) was 95 % of control.

Consider `CC(C)(C)[Si](C)(C)OC(=O)NCCCl`, for which the T/C reads like this: (dose: 100.0 mg/kg/injection, schedule: Q04DX002 (ip), vehicle: saline with Tween-80) 100 % of control; (dose: 200.0 mg/kg/injection, schedule: Q04DX002 (ip), vehicle: saline with Tween-80) 109 % of control; (dose: 400.0 mg/kg/injection, schedule: Q04DX002 (ip), vehicle: saline with Tween-80) 118 % of control.

For the compound `COc1ccc(CN2CCCN(Cc3ccc(OC)cc3)S2)cc1`, the T/C runs as follows: under setting [6], 92 % of control; under setting [1], 101 % of control; under setting [2], 110 % of control.

In the case of `CCCSc1nc(N)nc2nc[nH]c12`, the T/C is 100 % of control (dose: 100.0 mg/kg/injection, schedule: Q04DX003 (ip), vehicle: alcohol); 104 % of control (dose: 200.0 mg/kg/injection, schedule: Q04DX003 (ip), vehicle: alcohol); 90 % of control (dose: 400.0 mg/kg/injection, schedule: Q04DX003 (ip), vehicle: alcohol).

For `Cc1ccc(S(=O)(=O)OCCN(CCOS(=O)(=O)c2ccc(C)cc2)c2ccc(F)cc2)cc1`, the T/C was 190 % of control (dose: 29.3 mg/kg/injection, schedule: Q01DX009 (ip), vehicle: other); 213 % of control (dose: 44.0 mg/kg/injection, schedule: Q01DX009 (ip), vehicle: other); 245 % of control and 272 % of control (dose: 66.0 mg/kg/injection, schedule: Q01DX009 (ip), vehicle: other); 105 % of control (dose: 66.0 mg/kg/injection, schedule: Q04DX003 (ip), vehicle: saline sonified); 100 % of control (dose: 100.0 mg/kg/injection, schedule: Q04DX003 (ip), vehicle: saline sonified); 105 % of control (dose: 150.0 mg/kg/injection, schedule: Q04DX003 (ip), vehicle: saline sonified). Besides, the T/C (dose: 200.0 mg/kg/injection, schedule: Q01DX009 (ip), vehicle: other) is 113 % of control; the T/C (dose: 200.0 mg/kg/injection, schedule: Q04DX003 (ip), vehicle: other) is 154 % of control; the T/C (dose: 400.0 mg/kg/injection, schedule: Q04DX003 (ip), vehicle: other) is 150 % of control.

As to `CC(C)(C)CC(C)(C)c1ccc(OCCOS(=O)(=O)c2cccc([N+](=O)[O-])c2)cc1`, the T/C is, setting by setting: under setting [6], 109 % of control; under setting [1], 95 % of control; under setting [2], 118 % of control.

With `COc1cc(-c2ccc(Nc3ccccc3C(=O)O)c(OC)c2)ccc1Nc1ccccc1C(=O)O`, the T/C is, setting by setting: (dose: 50.0 mg/kg/injection, schedule: Q01DX010 (ip), vehicle: saline) 166 % of control; (dose: 100.0 mg/kg/injection, schedule: Q01DX010 (ip), vehicle: saline) 158 % of control.

Turning to `CCC1CCCC1O` (stereo not given), the T/C reads like this: under setting [6], 101 % of control; under setting [1], 102 % of control; under setting [2], 100 % of control.

For the compound `CCCCCCC(=O)CCCC(C)CCCC(C)C` (stereo not given), the T/C reads like this: under setting [3], 100 % of control; under setting [4], 109 % of control; under setting [5], 118 % of control.
